Data published in paper PMC9503009, “Determining Ligand and Ion-Induced Conformational Changes in Serotonin Transporter with Its Fluorescent Substrates” (International Journal of Molecular Sciences, 2022).
Read-outs that look alike come from different tables or passages of the source.

Legend:
Type in all cases: cell-based
SERT S404C/C109A = target: T1, SERT S404C/C109A (Rattus norvegicus, UniProt P31652, C109A/S404C); test: MTSET inhibition of APP+ uptake in live cells (extracellular pathway cysteine accessibility); details: for IC50: S404C/C109A
T1 construct: expressed in transfected cells
Experimental: (§1) Figure 3 Reactivity of the extracellular cysteine mutants with MTSET. (A) MTSET concentration-dependent inhibition of APP^+ uptake. The cells stably expressing C109A, Y107C/C109C, or S404C/C109A were incubated for 15 min with indicated concentrations of MTSET. The MTSET concentration giving half-maximal inhibition of APP^+ accumulation in the cells was used to calculate inactivation rate constants as plotted in (B). […] Representative images of APP^+ uptake by C109A, Y107C/C109A, or S404C/C109A under various MTSET concentrations were shown in Supplemental Figure S1. […] (B) Rate constants of MTSET inhibition of APP^+ uptake. At the half-maximal concentration, the half-time is the assay time (15 min) and the first-order rate constant is 7.7 × 10^−4 s^−1. This rate constant was divided by the half maximal MTSET concentration from (A) to obtain the pseudo first-order modification rate constant. Error bars represent SEM of three experiments.
(§2) The cells stably expressing Y107C/C109A or S404C/C109A were preincubated with indicated ligands and MTSET at a concentration of 0.01 mM for Y107C/C109A or 0.002 mM for S404C/C109A at 22 °C for 15 min, respectively. At the end of this incubation, cells were washed free of MTSET and ligands into KRH buffer containing NaCl and APP^+. APP^+ uptake was measured as described under “Materials and Methods”. Error bars represent SEM from three experiments. Asterisks and hashtags indicate statistically significant changes (p < 0.05) in the accumulated APP^+ fluorescence compared with the corresponding control (MTSET alone).
Accessibility of the cysteine residues in the extracellular pathway was measured by reactivity of Y107C/C109A and S404C/C109A mutants with MTSET. The cells stably expressing Y107C/C109A or S404C/C109A were incubated with MTSET over a range of concentrations in HEPES buffer containing indicated ligands or ions at 22 °C for 15 min. After excess MTSET and ligands were removed by rapid 3 × washing with the same buffer, the cells were then incubated with APP^+ at a final concentration of 2 μM in KRH buffer at 22 °C for another 5 min. The extent of APP^+ accumulated in the cells was determined by confocal imaging analysis in the live cells. To measure the effects of antidepressants, substrate 5-HT, or other ligands such as 5-HTP or tryptophan, where added, was present at 10 μM. To measure the effects of ions, 150 mM […] (NMDG) gluconate, and NMDG chloride, sodium isethionate, or NaCl was used as indicated. These measurements of reactivity depend on the ability of MTSET to inactivate APP^+ transport activity by an allosteric mechanism. The MTSET concentration causing half-maximal inactivation was determined and used to calculate the rate constant for cysteine modification, as described previously.

SERT S277C/X5C = target: T2, SERT S277C/X5C (Rattus norvegicus, UniProt P31652, C109A/C15A/C21A/C357I/C622A/S277C); test: MTS reagent inhibition of ASP+ binding in digitonin-permeabilized cells (cytoplasmic pathway cysteine accessibility); details: S277C/X5C, 25 μg/mL digitonin
T2 construct: expressed in transfected cells
Experimental: After 3 × rapid washing with KRH buffer, APP^+ or ASP^+ accumulation was measured as described under “Materials and Methods”. […] These representative images were parallelly acquired from one experiment. […] After 3 × washing, ASP^+ binding to the cell membrane was measured as described under “Materials and Methods”. […] (D) The effects of MTSET on ASP^+ binding of S277C/X5C and X5C. […] After 3 × rapid washing, ASP^+ binding was measured as described under “Materials and Methods”.
After washing to remove excess MTSEA and ligands, ASP^+ binding was measured as described under “Materials and Methods”. […] The IC50 values of MTSEA inhibition of ASP^+ binding were converted to rate constants.
The cells stably expressing Y107C/C109A were treated at 22 °C for 15 min with indicated concentrations of MTSET in the absence or presence of 10 μM vilazodone. After washing to remove excess MTSET and vilazodone, APP^+ uptake was measured as described under “Materials and Methods”. […] The IC50 values of MTSET inhibition were used to calculate rate constants as described under “Materials and Method”. Error bars represent SEM from three experiments. […] After washing to remove excess MTSEA and vilazodone, ASP^+ binding was measured as described under “Materials and Methods”. […] The IC50 values of MTSEA inhibition of ASP^+ binding were converted to rate constants. […]
For cytoplasmic pathway accessibility, measurements were performed with the cells stably expressing S277C/X5C. […] The cells, then, were washed free of unreacted MTSEA and ligands, ASP^+ binding was measured by adding 500 μL KRH buffer containing 10 μM ASP^+ and incubating at 22 °C for 5 min. Excess ASP^+ was removed by 3 × rapid washing with KRH buffer and ASP^+ fluorescence retained in the cell membrane was measured by confocal imaging analysis in the permeabilized cells. […] The MTSEA IC50 value was determined and used to calculate the rate constant for S277C/X5C modification.

SERT C109A = target: T3, SERT C109A (Rattus norvegicus, UniProt P31652, C109A); test: MTSET inhibition of APP+ uptake in live cells (extracellular pathway cysteine accessibility)
T3 construct: expressed in transfected cells
Experimental: Figure 3 Reactivity of the extracellular cysteine mutants with MTSET. (A) MTSET concentration-dependent inhibition of APP^+ uptake. The cells stably expressing C109A, Y107C/C109C, or S404C/C109A were incubated for 15 min with indicated concentrations of MTSET. The MTSET concentration giving half-maximal inhibition of APP^+ accumulation in the cells was used to calculate inactivation rate constants as plotted in (B). In this experiment, half-maximal MTSET concentrations were […] for C109A, 0.011 ± 0.006 mM for Y107C/C109A, and 0.0025 ± 0.0008 mM for S404C/C109A, respectively. Representative images of APP^+ uptake by C109A, Y107C/C109A, or S404C/C109A under various MTSET concentrations were shown in Supplemental Figure S1. The experiment was repeated twice with similar results. (B) Rate constants of MTSET inhibition of APP^+ uptake. At the half-maximal concentration, the half-time is the assay time (15 min) and the first-order rate constant is 7.7 × 10^−4 s^−1. […]
Accessibility of the cysteine residues in the extracellular pathway was measured by reactivity of Y107C/C109A and S404C/C109A mutants with MTSET. […] The extent of APP^+ accumulated in the cells was determined by confocal imaging analysis in the live cells. […] The MTSET concentration causing half-maximal inactivation was determined and used to calculate the rate constant for cysteine modification, as described previously.

SERT Y107C/C109A = target: T4, SERT Y107C/C109A (Rattus norvegicus, UniProt P31652, C109A/Y107C); test: as above; details: Y107C/C109A
T4 construct: expressed in transfected cells
Experimental: as §1
(A) MTSET concentration-dependent inhibition of APP^+ uptake. […] After washing to remove excess MTSET and ligands, APP^+ uptake was measured as described under “Materials and Methods”. […] (B) Rate constants of MTSET inhibition of APP^+ uptake. The IC50 values of MTSET inhibition were used to calculate rate constants as described under “Materials and Methods”. Error bars represent SEM from three experiments.
as §2
The cells stably expressing Y107C/C109A were treated at 22 °C for 15 min with indicated concentrations of MTSET in the absence or presence of 10 μM vilazodone. After washing to remove excess MTSET and vilazodone, APP^+ uptake was measured as described under “Materials and Methods”. […] The IC50 values of MTSET inhibition were used to calculate rate constants as described under “Materials and Method”. Error bars represent SEM from three experiments. […] After washing to remove excess MTSEA and vilazodone, ASP^+ binding was measured as described under “Materials and Methods”. […] The IC50 values of MTSEA inhibition of ASP^+ binding were converted to rate constants.

[1] = 15 min incubation with MTSET, read-out: half-maximal MTSET concentration for inhibition of APP+ accumulation
[2] = constant concentration used in simplified assay, read-out: MTSET IC50 value (APP+ uptake inhibition)

IC50 (SERT S404C/C109A; [1]): 2.5 ± 0.8 µM | IC50 (SERT S404C/C109A; [2]): 2 µM | reactivity with MTSET of S404C/C109A relative to Y107C/C109A (faster by) (SERT S404C/C109A; pseudo first-order rate constants): 4-5 fold | accessibility of Cys277 to MTSET (SERT S277C/X5C): not accessible | IC50 (SERT C109A; C109A, 15 min incubation with MTSET, read-out: half-maximal MTSET concentration for inhibition of APP+ accumulation): > 1000 µM | effect on transport activity (APP+ uptake) (SERT C109A; background construct C109A, MTSET 0.1 μM to 1 mM): little effect | IC50 (SERT Y107C/C109A; [1]): 11 ± 6 µM | IC50 (SERT Y107C/C109A; [2]): 10 µM
Structure (SMILES): C[N+](C)(C)CCSS(C)(=O)=O.[Br-] [MTSET, 2-(Trimethylammonium) ethyl methanethiosulfonate bromide]
